What was measured:
[1] = biological target: T1, Transient receptor potential cation channel subfamily V member 1 (Rattus norvegicus, UniProt O35433); experiment: Induction of [Ca2+] uptake in CHO cells expressing rat TRPV1 at 10-30 uM relative to 300 nM capsaicin; Not effective; format: functional, cell-based
[2] = biological target: T1, Transient receptor potential cation channel subfamily V member 1; experiment: Antagonist activity towards rat TRPV1 expressed in CHO cells; format: functional, cell-based
[3] = biological target: T1, Transient receptor potential cation channel subfamily V member 1; experiment: Induction of [Ca2+] uptake in CHO cells expressing rat TRPV1 at 10-30 uM relative to 300 nM capsaicin; Weakly effective; format: functional, cell-based
[4] = biological target: T1, Transient receptor potential cation channel subfamily V member 1; experiment: In vitro inhibition of [3H]RTX binding to rat TRPV1 expressed in CHO cells; format: cell-based
[5] = biological target: T1, Transient receptor potential cation channel subfamily V member 1; experiment: Induction of [Ca2+] uptake in CHO cells expressing rat TRPV1 relative to 300 nM capsaicin; format: functional, cell-based
[6] = biological target: T1, Transient receptor potential cation channel subfamily V member 1; experiment: Antagonist activity towards rat TRPV1 expressed in CHO cells; Not effective; format: functional, cell-based

T1 sequence (O35433 whole entry): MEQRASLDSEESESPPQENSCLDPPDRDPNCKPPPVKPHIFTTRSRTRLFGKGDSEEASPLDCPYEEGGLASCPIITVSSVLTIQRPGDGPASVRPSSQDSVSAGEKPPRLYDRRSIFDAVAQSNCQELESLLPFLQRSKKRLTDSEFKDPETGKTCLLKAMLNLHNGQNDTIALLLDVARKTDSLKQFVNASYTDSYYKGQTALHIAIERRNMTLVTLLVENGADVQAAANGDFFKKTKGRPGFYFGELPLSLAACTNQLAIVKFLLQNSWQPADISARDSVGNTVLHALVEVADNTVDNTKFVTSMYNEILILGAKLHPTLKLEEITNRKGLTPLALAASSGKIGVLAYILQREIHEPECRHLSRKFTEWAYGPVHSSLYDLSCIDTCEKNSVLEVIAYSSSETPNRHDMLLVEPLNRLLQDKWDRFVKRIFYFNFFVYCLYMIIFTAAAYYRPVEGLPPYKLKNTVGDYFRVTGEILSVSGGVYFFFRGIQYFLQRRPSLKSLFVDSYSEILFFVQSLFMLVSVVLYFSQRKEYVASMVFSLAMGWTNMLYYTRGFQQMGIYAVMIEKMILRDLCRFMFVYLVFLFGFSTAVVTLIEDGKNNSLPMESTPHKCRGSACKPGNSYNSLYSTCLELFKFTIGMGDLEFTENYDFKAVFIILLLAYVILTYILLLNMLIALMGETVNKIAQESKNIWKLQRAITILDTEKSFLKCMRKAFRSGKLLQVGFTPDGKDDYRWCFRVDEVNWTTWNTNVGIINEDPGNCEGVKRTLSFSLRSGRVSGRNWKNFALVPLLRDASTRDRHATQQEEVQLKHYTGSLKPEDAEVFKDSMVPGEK

With `CC(C)(C)c1ccc(CN(O)/C(S)=N/Cc2ccc(NS(C)(=O)=O)c([N+](=O)[O-])c2)cc1` the EC50 [1] was “Not Active” and the Ki [2] was 635 nM.
Work on `CC(C)(C)c1ccc(CO/C(S)=N/Cc2ccc(NS(C)(=O)=O)cc2)cc1` yielded a Ki [2] of 6250 nM, an efficacy [3] of 13% and a Ki [4] of 4600 nM.
For `CC(C)(C)c1ccc(CN(O)/C(S)=N/Cc2ccc(NS(C)(=O)=O)c(F)c2)cc1`, the EC50 [5] was greater than 7060 nM and the Ki [6] was “Not Active”.
In the case of `Oc1cc2c(cc1O)CN(C(=S)NCCc1ccc(Cl)cc1)CCC2` [CAPSAZEPINE], the EC50 [1] is reported as “Not Active”.
`CC(C)(C)c1ccc(CN(O)C(=O)Cc2ccc(NS(C)(=O)=O)cc2)cc1` gave a Ki [2] of 6600 nM and an efficacy [3] of 30%.
In the case of `CC(C)(C)c1ccc(CNC(=S)NCc2ccc(NS(C)(=O)=O)cc2)cc1`, the EC50 [1] is reported as “Not Active”.
With `COc1cc(C/N=C(\S)N(O)Cc2ccc(C(C)(C)C)cc2)ccc1NS(C)(=O)=O` the Ki [6] was “Not Active”.
For `Cc1ccc(CCCNC(=O)Cc2ccc(NS(C)(=O)=O)cc2)cc1C`, the EC50 [1] was “Not Active”, the Ki [2] was 13600 nM and the Ki [4] was 7180 nM.
With `CC(C)(C)c1ccc(C/N=C(\S)NNc2ccc(NS(C)(=O)=O)cc2)cc1` the EC50 [1] was “Not Active” and the Ki [2] was 1460 nM.
In the case of `CC(C)(C)c1ccc(CN(O)/C(S)=N/Cc2ccc(NS(C)(=O)=O)c(Cl)c2)cc1`, the EC50 [1] is reported as “Not Active”, the Ki [2] is reported as 579 nM and the Ki [4] is reported as 1310 nM.
For `CCCCCCCC/C=C\CCCCCCCCNC(=O)Cc1ccc(NS(C)(=O)=O)cc1`, the EC50 [1] was “Not Active”, the Ki [6] was “Not Active” and the Ki [4] was greater than 25000 nM.
`COc1cc(CO/C(S)=N/Cc2ccc(C(C)(C)C)cc2)ccc1NS(C)(=O)=O` was tested, and the EC50 [1] was “Not Active”, the Ki [2] was 110 nM and the Ki [4] was 461 nM.
In the case of `Cc1ccc(CCCNC(=O)Cc2ccc(NS(C)(=O)=O)c(F)c2)cc1C`, the EC50 [1] is reported as “Not Active” and the Ki [2] is reported as 4660 nM.
With `CC(C)(C)c1ccc(CN(O)/C(S)=N/Cc2ccc(NS(C)(=O)=O)cc2)cc1` the Ki [2] was 470 nM and the efficacy [3] was 16%.
With `CC(C)(C)c1ccc(CC(=O)NCc2ccc(NS(C)(=O)=O)cc2)cc1` the Ki [2] was 6760 nM, the efficacy [3] was 20% and the Ki [4] was 5220 nM.
`CC(C)(C)c1ccc(CNC(=S)NCc2ccc(NS(C)(=O)=O)c(F)c2)cc1` was tested, and the EC50 [1] was “Not Active” and the Ki [4] was 53.5 nM.
With `CC(C)(C)c1ccc(CNC(=O)N(O)Cc2ccc(NS(C)(=O)=O)cc2)cc1` the Ki [6] was “Not Active”.
`CC(C)(C)c1ccc(C/N=C(\S)N(O)Cc2ccc(NS(C)(=O)=O)cc2)cc1` was tested, and the EC50 [1] was “Not Active” and the Ki [2] was 470 nM.
In the case of `CC(C)(C)c1ccc(C/N=C(\S)OCc2ccc(NS(C)(=O)=O)cc2)cc1`, the EC50 [1] is reported as “Not Active”, the Ki [2] is reported as 222 nM and the Ki [4] is reported as 772 nM.
For `COc1cc(CNC(=S)NCc2ccc(C(C)(C)C)cc2)ccc1NS(C)(=O)=O`, the Ki [2] was 3.4 nM, the EC50 [3] was “Partial agonist” and the Ki [4] was 50.4 nM.
`CC(C)(C)c1ccc(CN(O)/C(S)=N/Cc2ccc(NS(C)(=O)=O)cc2Cl)cc1` was tested, and the EC50 [1] was “Not Active”, the Ki [6] was “Not Active” and the Ki [4] was 2270 nM.
With `CC(C)(C)c1ccc(CNC(=O)NCc2ccc(NS(C)(=O)=O)cc2)cc1` the EC50 [1] was “Not Active”, the Ki [2] was 225 nM and the Ki [4] was 2560 nM.
In the case of `CC(C)(C)c1ccc(CC(=O)N(O)Cc2ccc(NS(C)(=O)=O)cc2)cc1`, the Ki [6] is reported as “Not Active”.
With `CC(C)(C)c1ccc(CNC(=O)Cc2ccc(NS(C)(=O)=O)cc2)cc1` the EC50 [1] was “Not Active”, the Ki [2] was 398 nM and the Ki [4] was 2100 nM.
`COc1cc(C/N=C(\S)OCc2ccc(C(C)(C)C)cc2)ccc1NS(C)(=O)=O` was tested, and the EC50 [1] was “Not Active” and the Ki [2] was 8400 nM.
In the case of `CC(C)(C)c1ccc(N/N=C(\S)NCc2ccc(NS(C)(=O)=O)cc2)cc1`, the EC50 [1] is reported as “Not Active”, the Ki [2] is reported as 2010 nM and the Ki [4] is reported as 6400 nM.
Work on `CC(C)(C)c1ccc(C/N=C(\S)OCc2ccc(NS(C)(=O)=O)c(F)c2)cc1` yielded a Ki [2] of 120 nM, an efficacy [3] of 7% and a Ki [4] of 450 nM.
For `CC(C)(C)c1ccc(CNC(=O)Cc2ccc(NS(C)(=O)=O)c(F)c2)cc1`, the EC50 [1] was “Not Active”, the Ki [2] was 118 nM and the Ki [4] was 472 nM.
